For one experiment, the system named is Baf3 cells. Briefly: Induction of cellular protein tyrosine phosphorylation in Baf3 cells (Western blotting). Format: cell-based, murine. The following applies: Baf3 deprived of IL-3; proteins of about 55 and 32 kDa. As for the experimental part: For induction of cellular protein phosphorylation by sodium stibogluconate or pervanadate, Baf3 cells were incubated in 0.1% FCS-RPMI 1640 medium at 37° C. for 16 hours. The cells were then washed twice in RPMI 1640 medium and incubated with sodium stibogluconate or pervanandate (0.1 mM) for various times prior to termination by lysing cells in cold lysis buffer (50 mM Tris, pH 7.4; 150 mM NaCl; 0.2 mM Na3VO4; 20 mm NaF; 1% Nonidet P-40; 2 mM PMSF; 20 μg/ml of Aprotinin and 1 mM of sodium molybdic acid). To determine the effect of sodium stibogluconate or potassium antimonyl tartrate on IL-3-induced Jak/Stat phosphorylation, Baf3 cells were deprived of the growth factor for 16 hours in 0.1% FCS RPMI 1640 medium and then incubated with or without sodium stibogluconate or potassium antimonyl tartrate for 10 minutes. IL-3 was next added to the cell suspension and incubated for various times. The Cells were then harvested and lysed in cold lysis buffer at 4° C. for 45 minutes. Total cell lysates (TCL) were separated in SDS-PAGE gels, blotted onto nitrocellulose membrane (Schleicher & Schuell), probed with specific antibodies and detected using an enhanced chemiluminescence kit (ECL, Amersham, Arlington Heights, Ill.).
For orientation: A western blot detects proteins with antibodies after separation by electrophoresis.

The next experiment deals with TF-1 cells. The experiment in a line: TF-1 cell proliferation assay. Format: cell-based, human. The procedure:
The murine hematopoietic cell line Baf3 was maintained in RPMI 1640 medium supplemented with 10% fetal calf serum (FCS) and murine IL-3 (20 units/ml) as described previously in Damen et al., J. Biol. Chem. 270, 23402 (1995). Human myeloid cell line TF-1 was maintained in RPMI 1640 supplemented with 10% FCS and 40 ng/ml of recombinant human GM-CSF as described previously in Thomassen et al., Clin. Immunol. 95, 85 (2000). For cell proliferation assays, cells were washed in 10% FCS medium twice, resuspended in 10% FCS medium, incubated at 37° C. for 16 hours, and then cultured at 37° C. in 10% FCS medium containing various amounts of cytokines, sodium stibogluconate, or potassium antimonyl tartrate for 3-6 days as indicated. The cell numbers in proliferation assays were determined by an MTT assay or by microscopic cell counting as indicated.

Experiment [1] concerns Stat1. The experiment in a line: IFN-alpha-induced Stat1 tyrosine phosphorylation, WM9 cells. To be noted: WM9, 5 hours post-stimulation. The class given is cell-based, human. As for the experimental part:
(§1) For induction of Stat1 tyrosine phosphorylation by IFN-alpha in the absence or presence of sodium stibogluconate, cells grown in 10% FCS RPMI 1640 medium at 37° C. were stimulated with IFN-alpha (50 u/ml) for various time points and treated with or without sodium stibogluconate for 5 minutes prior to termination by lysing the cells in cold lysis buffer (1% NP-40; 50 mM Tris, pH 7.4; 100 mM NaCl; 1 mM EDTA, 10% glycerol, 10 mM sodium molybdic acid and 4 mM AEBSF).
(§2) Cell lysates were prepared by lysing cells in cold lysis buffer for 30 min and cleared by centrifuging at 14,000 rpm at 4° C. for 15 min. For SDS-PAGE, cell lysates were mixed with equal volume of 2×SDS-PAGE sample buffer, heated at 90° C. for 5 min and separated in 10% SDS-PAGE gels. Cellular proteins in SDS-PAGE gels were transferred to nitrocellulose membrane (Schleicher & Schuell, Keene, N.H.), blocked in 5% milk, probed with antibodies and detected by using an enhanced chemiluminescence kit (ECL, Amersham, Arlington Heights, Ill.).

In experiment [2] the test system is Stat1. Briefly: IFN-alpha-induced Stat1 tyrosine phosphorylation, WM35 cells. Format: cell-based, human. As for the experimental part:
as §1, §2

A further experiment relates to U251 cells. Briefly: Cell growth assay (MTT), U251 glioma cells. Format: cell-based, human. The following applies: 100 μg/ml, day 6. As for the experimental part: NIH3T3 (Yi, et al., Blood 85, 87 (1995)), WM9 (Forsberg, et al., Proc. Nat. Acad Sci. USA 90, 393 (1993)), DU145 (Mickey, et al., Cancer Res. 37, 4049 (1977)), LoVo (Drewinko, et al., Cancer Res. 36, 467 (1976)), HEY (Buick, et al., Cancer Res. 45, 3668 (1985)), U251 (Yoshida, et al., Cancer 50, 410 (1982)), A549 (Giard, et al., J. Natl. Cancer Inst. 51, 1417 (1973)) and SK-N-SH (Helson, et al., Cancer Res. 35, 2594 (1975)) cell lines have been described and were cultured in RPMI 1640 supplemented with 10% fetal calf serum (FCS). For measurement of sodium stibogluconate effects on cell growth in vitro, cells were cultured in the absence (−) or presence (+) of various amounts of sodium stibogluconate for 6 days with viable cells quantified by MTT assays (Mosmann, J. Imunol. Methods 65, 55 (1983)). Percentages of growth inhibition by sodium stibogluconate were calculated (+/−×%).

SMILES strings stand for the structures.

Take `O.O.O.O.O.O.O.O.O.O=C([O-])[C@@H]1[O][Sb]2([O-])([O][Sb]34([OH])[O][C@H]([C@H](O)CO)[C@H]([O]3)[C@H](C(=O)[O-])[O]4)[O][C@H]([C@H](O)CO)[C@@H]1[O]2.[Na+].[Na+].[Na+]` [sodium stibogluconate]: the “cellular protein tyrosine phosphorylation” value in the experiment with Baf3 cells is recorded as “induced protein tyrosine phosphorylation”. Further, the “GM-CSF-induced proliferation of TF-1 cells” value with TF-1 cells (50 μg/ml, GM-CSF 5-40 ng/ml) is reported as “augmented”. Moreover, the “growth inhibition activity of IFN-alpha in TF-1 cells in presence of drug” value in the experiment on TF-1 cells (50 μg/ml, with GM-CSF) is reported as “enhanced”. In the experiment with TF-1 cells (12.5-50 μg/ml), the “effect of low doses on GM-CSF-induced TF-1 growth” value was “no negative effect on GM-CSF-induced cell growth”. For the same molecule, the entries for the “IFN-alpha-induced Stat1 tyrosine phosphorylation” value in the experiment with Stat1 [1] and with Stat1 [2] were “Enhanced” and “failed to enhance”, respectively. Further, the “cell killing, U251” value with U251 cells is listed as “near-complete cell killing”.
